Data reported in patent US6900193B1, “Structural modification of 19-norprogesterone I: 17-α-substituted-11-β-substituted-4-aryl and 21-substituted 19-norpregnadienedione as new antiprogestational agents” (The United States of America as represented by the …, priority 1996, dated 2005).

Assays:
[1] = tested on: progesterone-induced endometrial proliferation; experiment: AntiClauberg test; type: in vivo, rabbit; set-up: key to ANTIPROGESTATIONAL Anti-Clauberg: relative oral potency vs. reference compound set to 100; conditions: for BIOLOGICAL ACTIVITY antiClauberg: Table 2; for antiClauberg / oral antiprogestational activity, in words: versus the standard 69B
Protocol: AntiClauberg Test (Clauberg, C., Zentr. Gynakol., 54:2757-2770 (1930)) Immature female rabbits of the New Zealand White breed (approx. 1 kg body weight) were maintained under standard laboratory conditions and received a subcutaneous injection of 5 μg estradiol in 10% ethanol/sesame oil daily for 6 consecutive days. Twenty-four hours after the last dose of estradiol (day 7) animals received progesterone by subcutaneous injection (0.8 mg/day) and the experimental compound in appropriate vehicle (usually 10% ethanol/sesame oil) orally or subcutaneously for five consecutive days. One group of rabbits received progesterone only. Twenty-four hours after the last dose all animals were sacrificed for removal of the uterus which was cleaned of all fat and connective tissue, weighed to the nearest 0.2 mg and placed in 10% neutral buffered formalin for subsequent histological processing. Five micron sections stained with hematoxylin and eosin (H&E) were evaluated microscopically for the degree of endometrial glandular proliferation according to the method of McPhail (McPhail, supra). The percent inhibition of endometrial proliferation at each dose level of the experimental compound was derived by comparison with the progesterone-stimulated animals alone.

[2] = molecular target: T1, progesterone receptor (estrogen-primed rabbit uterus) (Oryctolagus cuniculus, UniProt P06186); experiment: Relative binding affinity, progesterone receptor; conditions: for BINDING AFFINITY Progester: Table 2; for binding affinities compared with the standard, compound 69B: progesterone receptor implied (rabbit or human isoform A not specified)
T1 construct: preparation of cytosols for the progesterone and glucocorticoid receptor assays; from tissue; host or cells: uterus of estradiol-primed immature female New Zealand White rabbits (cytosol)
T1 sequence (P06186 1-930): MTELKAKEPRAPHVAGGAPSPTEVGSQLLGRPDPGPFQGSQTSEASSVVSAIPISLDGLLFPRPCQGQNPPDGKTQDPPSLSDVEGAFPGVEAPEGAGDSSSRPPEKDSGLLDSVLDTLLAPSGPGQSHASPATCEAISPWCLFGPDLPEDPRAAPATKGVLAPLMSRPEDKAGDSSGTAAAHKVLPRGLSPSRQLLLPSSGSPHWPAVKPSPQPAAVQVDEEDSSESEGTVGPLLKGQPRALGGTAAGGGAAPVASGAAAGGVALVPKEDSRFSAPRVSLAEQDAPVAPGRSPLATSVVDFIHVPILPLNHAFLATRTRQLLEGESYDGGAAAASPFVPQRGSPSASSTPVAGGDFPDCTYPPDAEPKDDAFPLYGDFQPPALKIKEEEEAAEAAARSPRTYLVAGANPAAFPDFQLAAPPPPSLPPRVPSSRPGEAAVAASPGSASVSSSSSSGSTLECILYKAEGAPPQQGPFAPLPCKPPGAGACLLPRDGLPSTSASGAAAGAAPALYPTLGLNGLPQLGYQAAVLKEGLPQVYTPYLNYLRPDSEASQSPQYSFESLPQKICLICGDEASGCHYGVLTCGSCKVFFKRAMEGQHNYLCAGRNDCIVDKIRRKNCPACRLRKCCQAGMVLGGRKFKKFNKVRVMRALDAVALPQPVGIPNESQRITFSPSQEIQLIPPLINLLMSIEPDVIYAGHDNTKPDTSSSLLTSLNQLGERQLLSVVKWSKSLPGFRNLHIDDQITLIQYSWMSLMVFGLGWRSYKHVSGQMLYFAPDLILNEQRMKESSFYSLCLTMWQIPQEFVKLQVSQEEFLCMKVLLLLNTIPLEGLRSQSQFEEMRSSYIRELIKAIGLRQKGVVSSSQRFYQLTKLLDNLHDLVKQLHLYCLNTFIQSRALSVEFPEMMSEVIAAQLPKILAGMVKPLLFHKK
Protocol: (§1) Relative Binding Affinities for the Progesterone and Glucocorticoid Receptors
(§2) Uteri and thymus glands were obtained from estradiol-primed immature female rabbits of the New Zealand White strain for preparation of cytosols for the progesterone and glucocorticoid receptor assays, respectively. Tissues were excised and immediately placed in ice cold TEGDM buffer (10 mM Tris, pH 7.4; 1.5 mM EDTA; 10% glycerol vol/vol/; 1 mM dithiothreitol [DTT]; and 20 mM sodium molybdate). The tissues were dissected free of connective tissue and fat, weighed and minced finely. Minced tissues were homogenized in 3 volumes TEGDM/gm with four 10 second bursts of a VirTis Cyclone set at half maximum speed with a 30 second cooling period (in ice) between bursts. Homogenates were centrifuged at 109,663 g at 4° C. for 1 hour to yield the soluble cytosol fiction. Aliquots of cytosol were snap frozen and stored at −75° C.
(§3) All binding assays were carried out at 2-6° C. for 16-18 hours. The following radioactive ligands were used: [1,2-^3H(N)]-progesterone (50.0 Ci/mmole) for the progesterone receptor (PR). […] For the progesterone receptor RBA assays 0.02 ml uterine cytosol or TEDGM buffer, 0.05 ml of various concentrations of test compounds or progesterone, 0.13 ml TEGDM buffer and 0.05 ml [^3H]-progesterone were added to duplicate tubes. For the glucocorticoid receptor RBA assays 0.1 ml thymus cytosol or TEDGM buffer, 0.05 ml of various concentrations of test compounds or dexamethasone, 0.05 ml TEGDM buffer and 0.05 ml [3H]-dexamethasone were added to duplicate tubes. For the estrogen receptor RBA assays 0.05 ml uterine cytosol, 0.1 ml TEGDM buffer, 0.05 ml of various concentrations of test compounds or estradiol and 0.05 ml [^3H]-estradiol were added to duplicate tubes. The concentrations of the test compounds, progesterone, dexamethasone and estradiol ranged from 0.05 to 100 nM and the concentrations of the competitors ranged from 0.5 to 500 nM. Total binding was measured at radioligand concentrations of 3.5 nM and nonspecific binding was measured in the presence of a 200-fold excess of unlabeled progesterone (PR), dexamethasone (GR) or diethylstilbestrol (ER), respectively.
(§4) In all incubations bound and free ligand were separated using dextra-coated charcoal (DCC). A 0.1 ml aliquot of DCC (0.5% charcoal/0.05% Dextran T-70) was added to each tube. The tubes were vortexed and incubated on ice for 10 minutes. Five-tenths ml TEG buffer (without DTT or molybdate) was then added to all tubes to improve supernatant recovery following centrifugation. The charcoal was pelleted by centrifugation at 2,100 g for 15 minutes at 4° C. The supernatants containing the [^3H]-steroid receptor complexes were decanted into vials containing 4 ml Optifluor (Packard Instrument Co.), vortexed, equilibrated in a liquid scintillation counter for 30 minutes and then counted for 2 minutes. This provided the quantity of receptor bound [^3H]-steroid at each competitor concentration.

[3] = molecular target: T2, glucocorticoid receptor (estrogen-primed rabbit thymus) (Oryctolagus cuniculus, UniProt P59667); experiment: Relative binding affinity, glucocorticoid receptor; conditions: for BINDING AFFINITY Glucocortic: Table 2
T2 construct: preparation of cytosols for the progesterone and glucocorticoid receptor assays; from tissue; host or cells: thymus of estradiol-primed immature female New Zealand White rabbits (cytosol)
T2 sequence (P59667 1-772): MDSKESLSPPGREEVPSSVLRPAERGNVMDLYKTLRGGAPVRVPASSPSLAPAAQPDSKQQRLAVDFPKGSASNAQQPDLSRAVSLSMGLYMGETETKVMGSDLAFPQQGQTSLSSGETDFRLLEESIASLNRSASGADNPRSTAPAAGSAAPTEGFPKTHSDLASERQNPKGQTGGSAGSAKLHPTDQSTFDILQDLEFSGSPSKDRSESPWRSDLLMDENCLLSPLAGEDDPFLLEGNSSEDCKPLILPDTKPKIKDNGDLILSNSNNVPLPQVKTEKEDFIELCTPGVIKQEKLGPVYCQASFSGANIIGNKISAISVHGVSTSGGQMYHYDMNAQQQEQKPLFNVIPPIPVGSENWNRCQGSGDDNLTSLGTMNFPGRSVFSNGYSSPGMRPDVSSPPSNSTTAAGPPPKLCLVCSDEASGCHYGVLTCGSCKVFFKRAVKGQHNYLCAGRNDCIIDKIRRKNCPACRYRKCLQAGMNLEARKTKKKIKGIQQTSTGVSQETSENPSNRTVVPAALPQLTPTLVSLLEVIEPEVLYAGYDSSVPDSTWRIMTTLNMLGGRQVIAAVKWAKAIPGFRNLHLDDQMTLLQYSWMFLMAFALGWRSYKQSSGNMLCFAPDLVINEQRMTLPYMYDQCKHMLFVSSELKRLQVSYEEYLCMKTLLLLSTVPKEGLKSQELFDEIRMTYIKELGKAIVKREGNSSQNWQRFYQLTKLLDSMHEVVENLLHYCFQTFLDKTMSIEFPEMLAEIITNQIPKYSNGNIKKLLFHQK
Protocol: as §1, §2, §3, §4

[4] = oral, CDB-2914 = 100 (assigned)
[5] = estrogen-primed rabbit uterus, progesterone = 100%
[6] = estrogen-primed rabbit thymus, dexamethasone = 100%

| Compound | BIOLOGICAL ACTIVITY antiClauberg [1, 4] | BINDING AFFINITY Progester [2, 5] | binding affinities compared with the standard, compound 69B [2] | BINDING AFFINITY Glucocortic [3, 6] | antiClauberg / oral antiprogestational activity, in words ([1]; oral) | ANTIPROGESTATIONAL Anti-Clauberg ([1]; oral, relative potency, CDB-2914 = 100 (assigned)) | more potent in the antiClauberg test than the lead compound ([1]; versus CDB-2914) | RELATIVE BINDING AFFINITY Progesterone [2, 5] | RELATIVE BINDING AFFINITY Glucocorticoid [3, 6] | binding affinity for the glucocorticoid receptor, in words ([3]; rabbit thymus, versus CDB-2914 (69B) where stated) |
| --- | --- | --- | --- | --- | --- | --- | --- | --- | --- | --- |
| COCC1(C(C)=O)CCC2C3CCC4=CC(=O)CCC4=C3C(c3ccc(N(C)C)cc3)CC21C (stereo not drawn) [Compound 91, 17α-Methoxymethyl-11β-[4-(N,N-methylamino)phenyl]-19-norpregna-4,9-diene-3,20-dione] | inactive | 171% | binding affinities greater than that observed for the standard | 59% | – | – | – | – | – | – |
| CC(=O)O[C@]1(C(C)=O)CC[C@H]2[C@@H]3CCC4=CC(=O)CCC4=C3[C@@H](c3ccc(N4CCOCC4)cc3)C[C@@]21C [Compound 72, 17α-Acetoxy-11β-[4-(N-Morpholino)phenyl]-19-norpregna-4,9-diene-3,20-dione] | 35 | 109% | binding affinities greater than that observed for the standard | 110% | – | – | – | – | – | – |
| COC1(C(C)=O)CCC2C3CCC4=CC(=O)CCC4=C3C(c3ccc(N(C)C)cc3)CC21C (stereo not drawn) [Compound 97a, 17α-Methoxy-11β-[4-(N,N-dimethylamino)phenyl]-19-norpregna-4,9-diene-3,20-dione] | 110 | 120% | binding affinities greater than that observed for the standard | 52% | greater activity than the standard | – | – | – | – | – |
| COCC(=O)OCC(=O)[C@@]1(OC(C)=O)CC[C@H]2[C@@H]3CCC4=CC(=O)CCC4=C3[C@@H](c3ccc(N(C)C)cc3)C[C@@]21C [Compound 126b] | 125 | 76% | – | 15% | greater activity than the standard | – | – | – | – | – |
| CC(=O)O[C@]1(C(=O)COC(=O)CCC2CCCC2)CC[C@H]2[C@@H]3CCC4=CC(=O)CCC4=C3[C@@H](c3ccc(N(C)C)cc3)C[C@@]21C [Compound 40, 17α-acetoxy-21-(3′-cyclopentylpropionyloxy)-11β-[4-(N,N-dimethylamino)phenyl]-19-norpregnadiene-3,20 dione] | – | – | – | – | greater activity than the standard | 155 | about 50% | 74% | 37% | – |
| COC1(C(C)=O)CCC2C3CCC4=CC(=O)CCC4=C3C(c3ccc(N4CCCCC4)cc3)CC21C (stereo not drawn) [Compound 97b, 17α-Methoxy-1-[4-(piperidino)phenyl]-19-norpregna-4,9-diene-3,20-dione] | 99 | 47% | – | 38% | – | – | – | – | – | – |
| 17α-Acetoxy-11β-[4-(N,N-diethylamino)phenyl]-21-thiocyanato-19-norpregna-4,9-diene-3,20-dione [Compound 138] | 57 | 63% | – | 14% | – | – | – | – | – | – |
| CC(=O)C1(OC=O)CCC2C3CCC4=CC(=O)CCC4=C3C(c3ccc(N(C)C)cc3)CC21C (stereo not drawn) [Compound 69A, 17α-formyloxy-11β-[4-(N,N-dimethylamino)phenyl]-19-norpregna-4,9-diene-3,20-dione] | 97 | 164% | binding affinities greater than that observed for the standard | 30% | – | – | – | – | – | – |
| C=COCC(=O)[C@@]1(OC(C)=O)CCC2C3CCC4=CC(=O)CCC4=C3C(c3ccc(N(C)C)cc3)C[C@@]21C (stereo partly drawn) [Compound 129, 17α-Acetoxy-11β-[4-(N,N-dimethylamino)phenyl]-21-(1′-ethenyloxy)-19-norpregna-4,9-diene-3,20-dione] | 303 | 155% | binding affinities greater than that observed for the standard | 20% | greater activity than the standard | – | – | – | – | low binding affinity |
